Columns and labels:
[1] = biological target: BLK (Homo sapiens, UniProt P51451); experiment: biochemical; settings: read-out: % enzyme activity, 1 μM; Run 1, Run 2
[2] = biological target: CDK2/cyclin E (Homo sapiens, UniProt P24941); settings: 1 μM; Run 1, Run 2
[3] = biological target: ERN2/IRE2 (Homo sapiens, UniProt Q76MJ5); experiment: biochemical; settings: read-out: % enzyme activity, 1 μM; Run 1, Run 2
[4] = biological target: SRMS (Homo sapiens, UniProt Q9H3Y6); experiment: biochemical; settings: read-out: % enzyme activity, 1 μM; Run 1, Run 2
SRMS, sequence (Q9H3Y6 whole entry): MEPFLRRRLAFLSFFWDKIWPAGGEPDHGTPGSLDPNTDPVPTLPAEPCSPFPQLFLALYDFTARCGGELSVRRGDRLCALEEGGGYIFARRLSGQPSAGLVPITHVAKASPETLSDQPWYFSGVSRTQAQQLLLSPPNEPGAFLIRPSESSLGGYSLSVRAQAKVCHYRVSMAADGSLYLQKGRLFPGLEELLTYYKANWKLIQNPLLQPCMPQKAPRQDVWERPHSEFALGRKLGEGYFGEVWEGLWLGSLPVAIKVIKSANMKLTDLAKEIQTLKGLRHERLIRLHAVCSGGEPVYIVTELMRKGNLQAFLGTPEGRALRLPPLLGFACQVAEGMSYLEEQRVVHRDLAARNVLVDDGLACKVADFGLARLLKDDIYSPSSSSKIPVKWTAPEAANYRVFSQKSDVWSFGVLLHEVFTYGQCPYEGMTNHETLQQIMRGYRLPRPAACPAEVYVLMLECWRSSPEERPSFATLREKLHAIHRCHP

[5] = biological target: CYP1A2
[6] = biological target: PHKg1 (Homo sapiens, UniProt Q16816); settings: 1 μM; Run 1, Run 2
PHKg1, sequence (Q16816 whole entry): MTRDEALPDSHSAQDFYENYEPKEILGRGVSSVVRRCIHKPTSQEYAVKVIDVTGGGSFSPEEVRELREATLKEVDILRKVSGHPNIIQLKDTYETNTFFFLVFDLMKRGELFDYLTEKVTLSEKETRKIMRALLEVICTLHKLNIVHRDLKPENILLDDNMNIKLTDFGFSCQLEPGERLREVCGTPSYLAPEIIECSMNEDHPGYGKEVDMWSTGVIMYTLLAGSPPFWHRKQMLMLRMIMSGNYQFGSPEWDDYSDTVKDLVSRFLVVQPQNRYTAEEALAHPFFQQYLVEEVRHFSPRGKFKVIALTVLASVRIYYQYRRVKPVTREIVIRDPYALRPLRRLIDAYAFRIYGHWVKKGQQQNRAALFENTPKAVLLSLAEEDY

[7] = biological target: T1, PKCepsilon (Homo sapiens, UniProt Q02156); experiment: biochemical; settings: read-out: % enzyme activity, 1 μM; Run 1, Run 2
T1 sequence (Q02156 1-737): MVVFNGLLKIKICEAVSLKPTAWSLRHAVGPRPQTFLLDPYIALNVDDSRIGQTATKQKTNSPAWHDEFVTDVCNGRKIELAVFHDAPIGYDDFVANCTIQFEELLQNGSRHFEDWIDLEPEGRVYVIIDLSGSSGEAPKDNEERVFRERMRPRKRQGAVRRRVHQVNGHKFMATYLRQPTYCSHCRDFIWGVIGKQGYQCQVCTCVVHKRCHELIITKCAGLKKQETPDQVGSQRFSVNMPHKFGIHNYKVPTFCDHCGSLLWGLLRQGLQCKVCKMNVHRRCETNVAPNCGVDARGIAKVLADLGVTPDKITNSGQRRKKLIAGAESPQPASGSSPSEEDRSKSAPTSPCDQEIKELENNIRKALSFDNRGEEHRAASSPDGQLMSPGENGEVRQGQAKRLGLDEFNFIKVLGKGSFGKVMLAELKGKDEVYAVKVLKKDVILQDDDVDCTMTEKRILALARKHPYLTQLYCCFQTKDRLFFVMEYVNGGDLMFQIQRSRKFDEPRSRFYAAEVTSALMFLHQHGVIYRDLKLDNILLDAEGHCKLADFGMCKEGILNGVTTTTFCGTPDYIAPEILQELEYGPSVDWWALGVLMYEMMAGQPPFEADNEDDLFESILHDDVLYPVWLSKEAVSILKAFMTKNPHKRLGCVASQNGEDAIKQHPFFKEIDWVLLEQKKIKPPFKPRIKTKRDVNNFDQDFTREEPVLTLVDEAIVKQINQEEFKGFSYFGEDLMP

[8] = biological target: ERBB4/HER4 (Homo sapiens, UniProt Q15303); settings: 1 μM; Run 1, Run 2
[9] = biological target: PIM1 (Homo sapiens, UniProt P11309); experiment: biochemical; settings: read-out: % enzyme activity, 1 μM; Run 1, Run 2
[10] = biological target: WNK2 (Homo sapiens, UniProt Q9Y3S1); experiment: biochemical; settings: read-out: % enzyme activity, 1 μM; Run 1, Run 2
[11] = biological target: STK32B/YANK2 (Homo sapiens, UniProt Q9NY57); experiment: biochemical; settings: read-out: % enzyme activity, 1 μM; Run 1, Run 2
STK32B/YANK2, sequence (Q9NY57 whole entry): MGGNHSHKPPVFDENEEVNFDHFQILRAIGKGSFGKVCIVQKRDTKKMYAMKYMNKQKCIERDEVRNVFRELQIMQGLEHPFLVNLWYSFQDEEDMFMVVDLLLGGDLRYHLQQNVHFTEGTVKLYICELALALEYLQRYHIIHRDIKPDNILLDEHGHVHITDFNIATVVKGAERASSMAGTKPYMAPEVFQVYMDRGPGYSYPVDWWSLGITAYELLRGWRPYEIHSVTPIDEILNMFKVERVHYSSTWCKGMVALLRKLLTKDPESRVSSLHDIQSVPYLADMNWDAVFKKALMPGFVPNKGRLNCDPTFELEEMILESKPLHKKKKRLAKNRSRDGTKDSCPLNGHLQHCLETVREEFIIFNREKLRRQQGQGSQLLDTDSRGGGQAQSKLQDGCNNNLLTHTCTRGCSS

[12] = biological target: T2, P38d/MAPK13 (Homo sapiens, UniProt O15264); settings: 1 μM; Run 1, Run 2
T2 sequence (O15264 1-365): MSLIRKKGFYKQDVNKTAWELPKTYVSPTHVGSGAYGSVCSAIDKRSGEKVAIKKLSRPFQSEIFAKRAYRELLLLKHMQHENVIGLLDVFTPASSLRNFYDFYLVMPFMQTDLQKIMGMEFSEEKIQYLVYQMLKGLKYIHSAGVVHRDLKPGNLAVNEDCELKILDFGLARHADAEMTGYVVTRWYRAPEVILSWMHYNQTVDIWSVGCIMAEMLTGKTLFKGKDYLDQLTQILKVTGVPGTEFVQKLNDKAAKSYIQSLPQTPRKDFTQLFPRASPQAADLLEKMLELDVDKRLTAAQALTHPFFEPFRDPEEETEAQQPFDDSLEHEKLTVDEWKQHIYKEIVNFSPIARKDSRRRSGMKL

[13] = biological target: CAMK2b (Homo sapiens, UniProt Q13554); experiment: biochemical; settings: read-out: % enzyme activity, 1 μM; Run 1, Run 2
CAMK2b, sequence (Q13554 whole entry): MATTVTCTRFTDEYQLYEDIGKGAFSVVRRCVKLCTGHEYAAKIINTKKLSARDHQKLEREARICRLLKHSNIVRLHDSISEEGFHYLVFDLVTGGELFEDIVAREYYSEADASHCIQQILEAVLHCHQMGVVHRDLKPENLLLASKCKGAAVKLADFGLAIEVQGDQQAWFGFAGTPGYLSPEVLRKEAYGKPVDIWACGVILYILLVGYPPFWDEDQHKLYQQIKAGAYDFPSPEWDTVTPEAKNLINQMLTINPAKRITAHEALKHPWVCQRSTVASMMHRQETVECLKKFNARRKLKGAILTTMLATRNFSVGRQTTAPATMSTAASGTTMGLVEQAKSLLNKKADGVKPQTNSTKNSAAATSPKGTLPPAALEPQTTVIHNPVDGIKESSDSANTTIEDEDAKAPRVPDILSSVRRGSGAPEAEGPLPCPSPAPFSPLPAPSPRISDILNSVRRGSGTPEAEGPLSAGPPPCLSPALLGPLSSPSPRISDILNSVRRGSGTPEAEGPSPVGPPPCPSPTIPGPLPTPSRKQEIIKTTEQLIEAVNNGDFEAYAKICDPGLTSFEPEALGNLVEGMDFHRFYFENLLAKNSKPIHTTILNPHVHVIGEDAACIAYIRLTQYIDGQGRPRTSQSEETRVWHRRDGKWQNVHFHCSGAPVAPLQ

[14] = biological target: MSK1/RPS6KA5 (Homo sapiens, UniProt O75582); experiment: biochemical; settings: read-out: % enzyme activity, 1 μM; Run 1, Run 2
MSK1/RPS6KA5, sequence (O75582 whole entry): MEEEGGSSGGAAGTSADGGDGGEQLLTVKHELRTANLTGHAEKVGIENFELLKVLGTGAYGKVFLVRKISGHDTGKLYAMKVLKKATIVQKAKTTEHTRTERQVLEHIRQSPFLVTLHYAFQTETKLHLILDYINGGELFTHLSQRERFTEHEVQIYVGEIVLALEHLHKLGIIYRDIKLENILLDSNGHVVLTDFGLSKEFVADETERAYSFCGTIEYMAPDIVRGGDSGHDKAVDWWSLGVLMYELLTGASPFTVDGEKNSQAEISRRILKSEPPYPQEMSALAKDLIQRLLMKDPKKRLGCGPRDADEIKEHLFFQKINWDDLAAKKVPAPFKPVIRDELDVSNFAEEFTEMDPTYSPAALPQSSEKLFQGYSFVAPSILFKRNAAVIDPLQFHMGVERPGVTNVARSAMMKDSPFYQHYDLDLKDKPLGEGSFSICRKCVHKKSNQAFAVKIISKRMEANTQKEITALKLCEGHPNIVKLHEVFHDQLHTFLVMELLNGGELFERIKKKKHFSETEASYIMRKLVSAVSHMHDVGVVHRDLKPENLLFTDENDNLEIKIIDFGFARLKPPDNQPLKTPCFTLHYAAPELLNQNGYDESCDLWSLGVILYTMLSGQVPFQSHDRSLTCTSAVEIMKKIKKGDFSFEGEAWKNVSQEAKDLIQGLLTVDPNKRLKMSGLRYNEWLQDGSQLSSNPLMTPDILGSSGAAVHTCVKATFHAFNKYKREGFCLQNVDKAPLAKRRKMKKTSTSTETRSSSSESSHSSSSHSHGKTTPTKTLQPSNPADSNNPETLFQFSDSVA

[15] = biological target: CDK2/cyclin A (Homo sapiens, UniProt P24941); settings: 1 μM; Run 1, Run 2
[16] = biological target: PKN3/PRK3 (Homo sapiens, UniProt Q6P5Z2); experiment: biochemical; settings: read-out: % enzyme activity, 1 μM; Run 1, Run 2
[17] = biological target: CDK18/cyclin Y (PCTK3) (Homo sapiens, UniProt Q07002); settings: 1 μM; Run 1, Run 2
[18] = biological target: STK33 (Homo sapiens, UniProt Q9BYT3); experiment: biochemical; settings: read-out: % enzyme activity, 1 μM; Run 1, Run 2
STK33, sequence (Q9BYT3 whole entry): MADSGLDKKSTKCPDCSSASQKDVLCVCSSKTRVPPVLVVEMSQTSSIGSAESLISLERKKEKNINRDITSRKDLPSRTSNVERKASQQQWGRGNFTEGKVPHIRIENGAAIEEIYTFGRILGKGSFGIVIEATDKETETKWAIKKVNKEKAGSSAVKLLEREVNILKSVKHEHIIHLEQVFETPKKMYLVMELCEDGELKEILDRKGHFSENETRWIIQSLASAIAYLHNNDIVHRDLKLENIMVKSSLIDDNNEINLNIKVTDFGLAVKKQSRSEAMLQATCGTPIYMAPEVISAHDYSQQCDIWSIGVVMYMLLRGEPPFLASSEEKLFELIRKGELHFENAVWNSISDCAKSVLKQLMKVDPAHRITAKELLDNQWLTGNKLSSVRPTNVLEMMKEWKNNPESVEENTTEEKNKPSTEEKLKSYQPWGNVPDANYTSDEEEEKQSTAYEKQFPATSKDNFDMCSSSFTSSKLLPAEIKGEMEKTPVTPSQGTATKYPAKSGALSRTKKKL

[19] = biological target: PAK5 (Homo sapiens, UniProt Q9P286); experiment: biochemical; settings: read-out: % enzyme activity, 1 μM; Run 1, Run 2
PAK5, sequence (Q9P286 whole entry): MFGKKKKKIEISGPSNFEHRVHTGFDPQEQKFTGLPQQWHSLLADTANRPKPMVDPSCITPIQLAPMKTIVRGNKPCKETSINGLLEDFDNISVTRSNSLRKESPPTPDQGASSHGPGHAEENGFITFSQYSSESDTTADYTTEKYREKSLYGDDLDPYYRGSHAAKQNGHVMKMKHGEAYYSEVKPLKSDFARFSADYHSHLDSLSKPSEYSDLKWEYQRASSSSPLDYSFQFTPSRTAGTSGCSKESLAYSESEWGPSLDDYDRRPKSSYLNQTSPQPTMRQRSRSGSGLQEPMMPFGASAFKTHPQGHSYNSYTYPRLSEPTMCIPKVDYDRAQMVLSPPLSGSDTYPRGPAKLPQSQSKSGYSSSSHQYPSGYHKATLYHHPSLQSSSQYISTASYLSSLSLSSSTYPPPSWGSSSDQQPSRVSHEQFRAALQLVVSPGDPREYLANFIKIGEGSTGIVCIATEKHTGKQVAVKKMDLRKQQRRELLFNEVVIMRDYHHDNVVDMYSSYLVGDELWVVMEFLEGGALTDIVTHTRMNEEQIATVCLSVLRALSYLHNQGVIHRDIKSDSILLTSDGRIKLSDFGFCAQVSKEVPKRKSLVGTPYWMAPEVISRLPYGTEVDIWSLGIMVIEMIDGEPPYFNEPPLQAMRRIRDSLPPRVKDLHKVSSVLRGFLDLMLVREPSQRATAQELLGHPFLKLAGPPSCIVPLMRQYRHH

[20] = biological target: T3, ALK5/TGFBR1 (Homo sapiens, UniProt P36897); experiment: 375-member kinase panel; format: biochemical; settings: Run 1, Run 2; for % enzyme activity: 1 μM; for remaining activity at 1 µM: read-out: % enzyme activity, 1 μM
T3 construct: purchased Reaction Biology Corporation
T3 sequence (P36897 34-503): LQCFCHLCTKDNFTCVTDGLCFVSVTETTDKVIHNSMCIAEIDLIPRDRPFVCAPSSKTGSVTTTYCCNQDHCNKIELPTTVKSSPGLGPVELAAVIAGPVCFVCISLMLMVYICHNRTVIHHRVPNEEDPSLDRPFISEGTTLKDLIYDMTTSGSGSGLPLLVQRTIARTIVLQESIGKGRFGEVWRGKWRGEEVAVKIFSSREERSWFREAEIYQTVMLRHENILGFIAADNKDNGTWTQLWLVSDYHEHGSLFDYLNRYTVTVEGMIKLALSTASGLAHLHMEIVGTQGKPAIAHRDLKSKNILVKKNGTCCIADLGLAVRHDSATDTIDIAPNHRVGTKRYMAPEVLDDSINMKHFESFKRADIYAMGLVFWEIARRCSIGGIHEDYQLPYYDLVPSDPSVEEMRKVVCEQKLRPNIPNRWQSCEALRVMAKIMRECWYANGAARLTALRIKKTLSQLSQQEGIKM

ERN2/IRE2, sequence (Q76MJ5 35-926): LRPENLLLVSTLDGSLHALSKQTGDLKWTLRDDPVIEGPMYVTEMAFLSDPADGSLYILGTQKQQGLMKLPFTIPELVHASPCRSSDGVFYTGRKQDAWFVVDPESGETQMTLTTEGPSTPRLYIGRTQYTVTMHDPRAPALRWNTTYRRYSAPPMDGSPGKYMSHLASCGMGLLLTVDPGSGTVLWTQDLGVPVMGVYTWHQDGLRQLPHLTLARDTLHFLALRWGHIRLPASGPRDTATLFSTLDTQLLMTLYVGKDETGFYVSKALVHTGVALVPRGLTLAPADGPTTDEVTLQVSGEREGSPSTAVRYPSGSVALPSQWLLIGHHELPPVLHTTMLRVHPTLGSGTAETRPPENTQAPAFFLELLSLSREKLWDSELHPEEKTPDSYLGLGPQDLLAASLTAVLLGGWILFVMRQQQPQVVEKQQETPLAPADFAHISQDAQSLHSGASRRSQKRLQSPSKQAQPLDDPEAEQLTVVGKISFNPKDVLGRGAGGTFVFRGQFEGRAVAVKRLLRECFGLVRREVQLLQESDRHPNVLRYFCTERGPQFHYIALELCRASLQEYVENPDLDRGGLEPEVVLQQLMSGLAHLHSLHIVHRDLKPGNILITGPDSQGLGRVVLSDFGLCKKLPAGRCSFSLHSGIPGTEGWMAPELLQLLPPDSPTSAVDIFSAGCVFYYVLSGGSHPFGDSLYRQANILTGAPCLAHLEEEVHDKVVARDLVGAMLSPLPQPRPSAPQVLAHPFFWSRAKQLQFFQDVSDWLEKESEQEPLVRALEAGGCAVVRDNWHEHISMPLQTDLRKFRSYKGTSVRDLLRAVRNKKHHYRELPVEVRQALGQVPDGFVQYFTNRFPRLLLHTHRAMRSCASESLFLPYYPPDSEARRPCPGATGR

Structure (SMILES) | remaining activity at 1 µM [1] [%] | % enzyme activity [2] [%] | remaining activity at 1 µM [3] [%] | remaining activity at 1 µM [4] [%] | CYP inhibition [5] [µM] | % enzyme activity [6] [%] | remaining activity at 1 µM [7] [%] | % enzyme activity [8] [%] | remaining activity at 1 µM [9] [%] | remaining activity at 1 µM [10] [%] | remaining activity at 1 µM [11] [%] | % enzyme activity [12] [%] | remaining activity at 1 µM [13] [%] | remaining activity at 1 µM [14] [%] | % enzyme activity [15] [%] | remaining activity at 1 µM [16] [%] | % enzyme activity [17] [%] | remaining activity at 1 µM [18] [%] | remaining activity at 1 µM [19] [%] | % enzyme activity [20] [%] | further results
COc1cc(-c2cncc(-c3ccc(N4CCN(C)CC4)cc3)c2C)cc(F)c1C(N)=O [Compound 26a, 2-Fluoro-6-methoxy-4-(4-methyl-5-(4-(4-methylpiperazin-1-yl)phenyl)pyridin-3-yl)benzamide] | 97.2 | 104.52 | 97.5 | 96.6 | > 50 | 82.79 | 99.8 | 99.40 | 100 | 95.5 | 87.6 | 98.26 | 83.9 | 87.1 | 97.95 | 95 | 100.43 | 91 | 94.6 | 82.28 | remaining activity at 1 µM [20]: 82.5%
COc1cc(-c2cncc(-c3ccc(N4C[C@@H](C)N(C)[C@@H](C)C4)cc3)c2C)cc(F)c1C(N)=O [Compound 26c, 2-Fluoro-6-methoxy-4-(4-methyl-5-(4-((3R,5S)-3,4,5-trimethylpiperazin-1-yl)phenyl)pyridin-3-yl)benzamide] | 104 | 102.10 | 98.9 | 96.1 | > 50 | 95.24 | 106 | 93.88 | 95.2 | 96.9 | 98.2 | 97.52 | 92.8 | 90.5 | 98.65 | 98.4 | 97.60 | 97.4 | 97.3 | 96.60 | remaining activity at 1 µM [20]: 97.2%

— article PMC8213057, “Targeting ALK2: An Open Science Approach to Developing Therapeutics for the Treatment of Diffuse Intrinsic Pontine Glioma” (Journal of Medicinal Chemistry, 2020)
